Patent US9901592B2 (priority 2008, dated 2018)
Converted amounts (≈) assume the structure as drawn. “And” between values parts separate entries of the source, which are not always exact repeats. Identical values can stand only once. Like-named read-outs stand apart in the source and are kept apart here.

Tests used:
N. meningitidis = assay: MIC, CLSI broth microdilution, invasive isolates; type: cell-based; conditions: for MIC / MIC50 / MIC90: Neisseria meningitidis, 62 N. meningitidis isolates
Protocol: Example. […] Colonization of the nasopharynx (NP) by NM can lead to invasive meningococcal disease. Chemoprophylaxis is used to eradicate NP colonization and prevent transmission to nonimmune contacts. […] 62 isolates (91.9% blood culture) of NM were collected from 29 medical centers in North and South America and Europe (1997-2008). […] Serological identification was performed for serogroups (SGs) B, C, Y and W135.

S. pneumoniae [1] = assay: microbe, parasite or virus in culture; type: cell-based
U. urealyticum = assay: MIC testing in 10B broth (colour change); type: cell-based
M. pneumoniae = assay: microbe, parasite or virus in culture; type: cell-based
M. genitalium = type: cell-based; conditions: M. genitalium (5 isolates)
M. hominis = type: cell-based
M. fermentans = type: cell-based; conditions: M. fermentans (15 isolates)
U. parvum = assay: MIC testing in 10B broth (colour change); type: cell-based, Ureaplasma parvum
S. pneumoniae [2] = type: cell-based
S. aureus = type: cell-based
pneumococci = assay: microbe, parasite or virus in culture; type: cell-based, S. pneumoniae
M. catarrhalis = assay: microbe, parasite or virus in culture; type: cell-based; conditions: Moraxella catarrhalis
group A streptococci = assay: microbe, parasite or virus in culture; type: cell-based, S. pyogenes
[3] = Ureaplasma urealyticum, U. urealyticum (10 isolates)
[4] = Streptococcus pneumoniae, pneumococci, L4 mutations (27)

In the case of `CO/N=C(\C(=O)N[C@@H]1C(=O)N2C(C(=O)O)=C(CSc3nc(=O)c(=O)[nH]n3C)CS[C@H]12)c1csc(N)n1` [CRO, ceftriaxone], the “% Susc.” value (N. meningitidis; CLSI (M100-S19, 2009) criteria) is reported as 100.0%, the MIC (N. meningitidis) is reported as at most 0.015 µg/mL and the MIC50 (N. meningitidis) is reported as at most 0.015 µg/mL. The MIC90 (N. meningitidis) was at most 0.015 µg/mL and the nonsusceptibility (S. pneumoniae [1]) was 33.3%.

With `C[C@H]1c2cccc(O)c2C(=O)C2=C(O)[C@]3(O)C(=O)C(C(N)=O)=C(O)[C@@H](N(C)C)[C@@H]3[C@@H](O)[C@@H]21` [Doxycycline, doxycycline] the “MIC Range” value (U. urealyticum; U. urealyticum (10 isolates)) was 0.031 to 32 µg/mL, the MIC (U. urealyticum; Ureaplasma urealyticum, 4 doxycycline-resistant U. urealyticum) was 4 to 32 µg/mL (≈ 9 to 72 µM) and the MIC50 (U. urealyticum; [3]) was 1 µg/mL (≈ 2.25 µM). The MIC90 (U. urealyticum; [3]) was 16 µg/mL (≈ 36 µM), the “MIC Range” value (M. pneumoniae) was 0.016 to 0.25 µg/mL and the MIC50 (M. pneumoniae; Mycoplasmoides pneumoniae) was 0.125 µg/mL (≈ 0.281 µM). The MIC90 (M. pneumoniae; Mycoplasmoides pneumoniae) was 0.25 µg/mL (≈ 0.563 µM), the “MIC Range” value (M. genitalium) was “≦0.008-0.031 μg/mL” and the “MIC Range” value (M. hominis; M. hominis (13 isolates)) was “≦0.008-0.016 μg/mL”. For the same compound, the MIC50 (M. hominis; Metamycoplasma hominis) was 0.125 µg/mL (≈ 0.281 µM), the MIC90 (M. hominis; Metamycoplasma hominis) was 8 µg/mL (≈ 18 µM) and the MIC (M. hominis; Metamycoplasma hominis, 2 doxycycline-resistant M. hominis isolates) was 8 to 16 µg/mL (≈ 18 to 36 µM). The “MIC Range” value (M. fermentans) was 0.016 to 0.5 µg/mL, the MIC50 (M. fermentans; Mycoplasmopsis fermentans) was 0.125 µg/mL (≈ 0.281 µM) and the MIC90 (M. fermentans; Mycoplasmopsis fermentans) was 0.5 µg/mL (≈ 1.13 µM). The MIC (U. parvum; 7 doxycycline-resistant Ureaplasma parvum) was 4 to 16 µg/mL (≈ 9 to 36 µM), the “MIC Range” value (U. parvum; U. parvum (10 isolates)) was 0.031 to 16 µg/mL and the MIC50 (U. parvum; Ureaplasma parvum, U. parvum (10 isolates), read-out: MIC50) was 8 µg/mL (≈ 18 µM). It also gave an MIC90 (U. parvum; Ureaplasma parvum, U. parvum (10 isolates), read-out: MIC90) of 16 µg/mL (≈ 36 µM).

`CC[C@H]1OC(=O)[C@H](C)[C@@H](OC2CC(C)(OC)C(O)C(C)O2)[C@H](C)[C@@H](OC2OC(C)CC(N(C)C)C2O)[C@@](C)(OC)C[C@@H](C)C(=O)[C@H](C)[C@H]2N(CCCCn3cc(-c4ccccn4)nn3)C(=O)O[C@]12C` (stereo partly shown) [Entry 20a] was tested, and the MIC (S. pneumoniae [2]) was “≦0.0625 μg/mL” and the MIC (S. aureus) was 8 µg/mL (≈ 8.22 µM).

With `CC[C@H]1OC(=O)[C@H](C)[C@@H](OC2CC(C)(OC)C(O)C(C)O2)[C@H](C)[C@@H](OC2OC(C)CC(N(C)C)C2O)[C@@](C)(OC)C[C@@H](C)C(=O)[C@H](C)[C@H]2N(CCCCn3cc(-c4cccnc4)nn3)C(=O)O[C@]12C` (stereo partly shown) [Entry 20b] the MIC (S. pneumoniae [2]) was “≦0.0625 μg/mL” and the MIC (S. aureus) was 8 µg/mL (≈ 8.22 µM).

`CC[C@H]1OC(=O)[C@H](C)[C@@H](OC2CC(C)(OC)C(O)C(C)O2)[C@H](C)[C@@H](OC2OC(C)CC(N(C)C)C2O)[C@@](C)(OC)C[C@@H](C)C(=O)[C@H](C)[C@H]2N(CCCCn3cc(COc4c(Cl)cccc4Cl)nn3)C(=O)O[C@]12C` (stereo partly shown) [Entry 20d] was tested, and the MIC (S. pneumoniae [2]) was “≦0.0625 μg/mL” and the MIC (S. aureus) was 8 µg/mL (≈ 7.47 µM).

In the case of `CC[C@H]1OC(=O)[C@H](C)[C@@H](OC2CC(C)(OC)C(O)C(C)O2)[C@H](C)[C@@H](OC2OC(C)CC(N(C)C)C2O)[C@@](C)(OC)C[C@@H](C)C(=O)[C@H](C)[C@H]2N(CCCCn3cc(Cn4nnc5ccccc54)nn3)C(=O)O[C@]12C` (stereo partly shown) [Entry 20e], the MIC (S. pneumoniae [2]) is reported as “≦0.0625 μg/mL” and the MIC (S. aureus) is reported as 8 µg/mL (≈ 7.79 µM).

In the case of `CC[C@H]1OC(=O)[C@@](C)(F)C(=O)[C@H](C)[C@@H](OC2OC(C)CC(N(C)C)C2O)[C@@](C)(OC)C[C@@H](C)C(=O)[C@H](C)[C@H]2N(CCCCn3cc(-c4ccccn4)nn3)C(=O)O[C@]12C` (stereo partly shown) [Entry 23a], the MIC (S. pneumoniae [2]) is reported as “≦0.125 μg/mL”.

In the case of `CC[C@H]1OC(=O)[C@H](C)[C@@H](O[C@H]2C[C@@](C)(OC)[C@@H](O)[C@H](C)O2)[C@H](C)[C@@H](O[C@@H]2O[C@H](C)C[C@H](N(C)C)[C@H]2O)[C@](C)(O)C[C@@H](C)C(=O)[C@H](C)[C@@H](O)[C@]1(C)O` [Erythromycin, erythromycin A], the MIC50 (pneumococci; [4]) is reported as over 64 µg/mL, the MIC90 (pneumococci; [4]) is reported as over 64 µg/mL and the MIC (N. meningitidis) is reported as 0.03 to 0.5 µg/mL (≈ 0.0409 to 0.681 µM). For the same compound, the MIC50 (N. meningitidis) was 0.12 µg/mL (≈ 0.164 µM), the MIC90 (N. meningitidis) was 0.25 µg/mL (≈ 0.341 µM) and the MIC90 (S. pneumoniae [1]; Streptococcus pneumoniae) was over 32 µg/mL. For the same compound, the MIC90 (M. catarrhalis) was 0.25 µg/mL (≈ 0.341 µM).

With `C[C@H]1COc2c(N3CCN(C)CC3)c(F)cc3c(=O)c(C(=O)O)cn1c23` [Levo] the MIC50 (pneumococci) was 1 µg/mL (≈ 2.77 µM), the “MIC Range” value (pneumococci) was 0.06 to 32 µg/mL and the MIC range (pneumococci) was 1 to 32 µg/mL. The MIC50 (group A streptococci) was 0.5 µg/mL (≈ 1.38 µM), the MIC90 (group A streptococci) was 0.5 µg/mL and 1 µg/mL and the “MIC Range” value (group A streptococci) was 0.5 to 1 µg/mL and 0.5 to 2 µg/mL.
